According to patent US11352396B2, “Antimicrobial peptides and methods of using same” (Zoetis Services LLC, priority 2017, dated 2022):

Assays:
[1] = test system: Canine-derived epithelial keratinocyte (CPEK) cells; type: cell-based
Procedure: Safety of the peptides listed in table 2 was determining by measuring cell viability. Canine-derived epithelial keratinocyte (CPEK) cells were propagated to determine cell viability in the presence of peptides. Cells were grown from a frozen stock in CnT-09-5 (with supplements) pre-warmed media in a T75 flask and incubated overnight at 37° C., 5% CO2. Cells were washed with phosphate buffer and replenished with pre-warmed CnT-05-9 media and repeated for several days until cells reached a density of 6.6×10^4 cells/mL. Cells were then transferred to a 384 well plate, allowed to settle and dosed with peptides and melittin control peptide (50 μM to 0.05 μM) and incubated overnight at 37° C., 5% CO2. 0.1% TritonX100 as (HPE) and phosphate buffer alone as (ZPE) were added to the plates to calculate percent effect once the assay was terminated with 10 μL CELLTITER-GLO® assay reagents for a luminescent readout.

[2] = test system: MSSP (Methicillin-Susceptible Staphylococcus pseudintermedius); test: MIC against selected strains of MSSP; type: cell-based; parameters: MIC MSSP 49051 / MIC MSSP 81923 / MIC MSSP 84250 / Effect on MSSP 86000 / Effect on MSSP 72036 / Effect on MSSP 78032: unit not given beside the values; Effect on MSSP 71990 / Effect on MSSP 86001 / Effect on MSSP 72191 / Effect on MSSP 76986 / Effect on MSSP 77378 / Effect on MSSP 81923 / Effect on MSSP 84250 / Effect on MSSP 84658: unit: µM; settings: for SP 49051: S. pseudintermedius 49051, Table 6; for Effect on MSSP 71990: strain 71990, Table 5; for Effect on MSSP 72036: strain 72036, Table 5; for Effect on MSSP 72191: strain 72191, Table 5; for Effect on MSSP 76986: strain 76986, Table 5; for Effect on MSSP 77378: strain 77378, Table 5; for Effect on MSSP 78032: strain 78032, Table 5; for Effect on MSSP 81923: strain 81923, Table 5; for Effect on MSSP 84250: strain 84250, Table 5; for Effect on MSSP 84658: strain 84658, Table 5; for Effect on MSSP 86000: strain 86000, Table 5; for Effect on MSSP 86001: strain 86001, Table 5
Procedure: (§1) Peptides according to SEQ ID NOs as listed in Table 1 were prepared by a commercial manufacturer (CS Bio, Menlo Park, Calif.) using solid phase synthesis. Antimicrobial activity was assessed by determining the Minimal Inhibitory Concentration (MIC) against S. aureus and E. coli. Briefly, Microbroth MICs were performed using CLSI methodology (VET01-S2). For S. aureus and E. coli ATCC strains, TSA with 5% lysed horse blood agar was used for overnight culturing at 37° C. ambient air. A 0.5 mM stock for each peptide was made with cell culture water, 0.01% acetic acid and serially diluted and spotted (10 μL) in a 96-well plate for in assay dose titration concentration of 50 μM to 0.05 μM. 0.5 McFarland Standard of each strain was diluted 1:250 in Mueller-Hinton Broth (MHB). 90 μL of culture suspension was then added upon drug in the 96-well plate for overnight incubation for 18-20 hours. The MIC was determined visually at the first well of no visible growth at the corresponding concentration.
(§2) Antimicrobial activity of the peptides listed in Table 2 against different strains of MSSP (Methicillin-Susceptible Staphylococcus pseudintermedius) and MRSP (Methicillin-Resistant Staphylococcus pseudintermedius) was further assessed. The results are in Tables 3 and 4, respectively.

E. coli ATCC 25922 = type: cell-based; settings: E. coli 25922, Table 6
Procedure: as §1

cRBC = type: cell-based, canine
Procedure: SEQ ID NO: 1 was selected for further research. Toxicity of SEQ ID NO: 1 to eukaryotic blood cells was compared to that of tachyplesin (SEQ ID NO: 13). A standard, well referenced red blood cell hemolysis assay was employed against multiple species to test the lysis potential of the peptides. Red blood cells (RBCs) were prepared and isolated by several centrifuge and wash steps to remove the plasma fraction. A dose titration (50 μM to 0.05 μM) of test peptides and control peptide melittin were spotted from 50 mM stocks in a 384 well plate. Prepared RBCs were incubated with peptide for one hour at 37° C. Percent hemolysis was measured by optical density at 405 nm and utilizing 1% TritonX100 as hundred percent effect (HPE) and phosphate buffer alone as zero percent effect (ZPE).

[3] = test system: MRSP (Methicillin-Resistant Staphylococcus pseudintermedius); test: MIC against selected strains of MRSP; type: cell-based; parameters: key to MIC MRSP 72192 / MIC MRSP 76923 / MR 71994 / Mr 88493 / MR 72035 / MR 72192 / MR 76923 / MR 79882 / MR 80279 / MR 81926 / MR 86002 / MR 87665: MIC in μM (visual, first well with no growth); settings: for MR 71994: MRSP strain 71994, Table 6; for MR 72035: MRSP strain 72035, Table 6; for MR 72192: MRSP strain 72192, Table 6; for MR 76923: MRSP strain 76923, Table 6; for MR 79882: MRSP strain 79882, Table 6; for MR 80279: MRSP strain 80279, Table 6; for MR 81926: MRSP strain 81926, Table 6; for MR 86002: MRSP strain 86002, Table 6; for MR 87665: MRSP strain 87665, Table 6; for Mr 88493: MRSP strain 88493, Table 6
Procedure: as §1, §2

S. aureus ATCC 29213 = type: cell-based; parameters: key to SA 29213: MIC in μM (lowest conc. with no visible growth); settings: S. aureus 29213, Table 6
Procedure: as §1

Row | Substance | CPEK (50 μM) [1] | SP 49051 [2] | Effect on MSSP 71990 [2] | Effect on MSSP 72036 [2] | Effect on MSSP 72191 [2] | Effect on MSSP 76986 [2] | Effect on MSSP 77378 [2] | Effect on MSSP 78032 [2] | Effect on MSSP 81923 [2] | Effect on MSSP 84250 [2] | Effect on MSSP 84658 [2] | Effect on MSSP 86000 [2] | Effect on MSSP 86001 [2] | EC 25922 (E. coli ATCC 25922) | cRBC (50 μM) (cRBC) | MR 71994 [3] | MR 72035 [3] | MR 72192 [3] | MR 76923 [3] | MR 79882 [3] | further results
1 | 98 (KWCVRVCYRGICYRRCRD; Artificial Antimicrobial peptide) [compound 98] | 9.3 | 1.6 | 1.6 | 1.6 | 1.6 | 1.6 | 1.6 | 1.6 | 1.6 | 1.6 | 1.6 | 1.6 | 1.6 | 1.6 µM | 35.0 | 1.6 | 3.1 | 1.6 | 1.6 | 0.8 | MR 80279 [3]: 1.6; MR 81926 [3]: 1.6; MR 86002 [3]: 1.6; MR 87665 [3]: 1.6; Mr 88493 [3]: 1.6; SA 29213 (S. aureus ATCC 29213): 3.1
2 | 106 (KWCWRVCYRGICYRRCRD; Artificial Antimicrobial peptide) [compound 106] | 25.2 | 1.6 | 1.6 | 1.6 | 1.6 | 1.6 | 0.8 | 1.6 | 1.6 | 1.6 | 1.6 | 1.6 | 1.6 | 3.1 µM | 101.5 | 1.6 | 3.1 | 1.6 | 1.6 | 0.8 | MR 80279 [3]: 1.6; MR 81926 [3]: 1.6; MR 86002 [3]: 1.6; MR 87665 [3]: 1.6; Mr 88493 [3]: 3.1; SA 29213 (S. aureus ATCC 29213): 3.1
3 | 29 (PKWCFRVCYRGICYRRCRD; Artificial Antimicrobial peptide) [compound 29] | 17.5 | 1.6 | 1.6 | 1.6 | 1.6 | 1.6 | 0.8 | 0.8 | 0.8 | 0.8 | 1.6 | 1.6 | 1.6 | 1.6 µM | 68.2 | 1.6 | 1.6 | 0.8 | 1.6 | 0.8 | MR 80279 [3]: 0.8; MR 81926 [3]: 0.8; MR 86002 [3]: 1.6; MR 87665 [3]: 1.6; Mr 88493 [3]: 1.6; SA 29213 (S. aureus ATCC 29213): 3.1
4 | 102 (KWCFRACYRGICYRRCRD; Artificial Antimicrobial peptide) [compound 102] | −2.1 | 1.6 | 1.6 | 1.6 | 3.1 | 1.6 | 0.8 | 1.6 | 1.6 | 1.6 | 1.6 | 1.6 | 1.6 | 1.6 µM | 23.9 | 3.1 | 3.1 | 1.6 | 1.6 | 1.6 | MR 80279 [3]: 1.6; MR 81926 [3]: 1.6; MR 86002 [3]: 1.6; MR 87665 [3]: 1.6; Mr 88493 [3]: 3.1; SA 29213 (S. aureus ATCC 29213): 6.2
5 | 116 (KWCFYVCYRGICYRRCND; Artificial Antimicrobial peptide) [compound 116] | 16.0 | 1.6 | 1.6 | 1.6 | 1.6 | 1.6 | 1.6 | 1.6 | 1.6 | 1.6 | 1.6 | 1.6 | 1.6 | 0.8 µM | 87.0 | 1.6 | 1.6 | 1.6 | 1.6 | 1.6 | MR 80279 [3]: 1.6; MR 81926 [3]: 1.6; MR 86002 [3]: 3.1; MR 87665 [3]: 1.6; Mr 88493 [3]: 1.6; SA 29213 (S. aureus ATCC 29213): 6.2
6 | 117 (GWCFYVCYRGICYRRCRD; Artificial Antimicrobial peptide) [compound 117] | 14.7 | 1.6 | 1.6 | 1.6 | 1.6 | 0.8 | 0.8 | 1.6 | 1.6 | 1.6 | 1.6 | 1.6 | 1.6 | 0.8 µM | 97.8 | 1.6 | 1.6 | 0.8 | 1.6 | 0.8 | MR 80279 [3]: 1.6; MR 81926 [3]: 1.6; MR 86002 [3]: 0.8; MR 87665 [3]: 1.6; Mr 88493 [3]: 1.6; SA 29213 (S. aureus ATCC 29213): 6.2
